Data on five compounds can be found in patent publication US5002943A, “Condensed diazepinones, processes for preparing them and pharmaceutical compositions containing these compounds” (priority 1988, dated 1991).

Assay [1] deals with T1, muscarinic receptors (heart) (Rattus norvegicus, UniProt P10980).
T1 sequence (P10980 1-466): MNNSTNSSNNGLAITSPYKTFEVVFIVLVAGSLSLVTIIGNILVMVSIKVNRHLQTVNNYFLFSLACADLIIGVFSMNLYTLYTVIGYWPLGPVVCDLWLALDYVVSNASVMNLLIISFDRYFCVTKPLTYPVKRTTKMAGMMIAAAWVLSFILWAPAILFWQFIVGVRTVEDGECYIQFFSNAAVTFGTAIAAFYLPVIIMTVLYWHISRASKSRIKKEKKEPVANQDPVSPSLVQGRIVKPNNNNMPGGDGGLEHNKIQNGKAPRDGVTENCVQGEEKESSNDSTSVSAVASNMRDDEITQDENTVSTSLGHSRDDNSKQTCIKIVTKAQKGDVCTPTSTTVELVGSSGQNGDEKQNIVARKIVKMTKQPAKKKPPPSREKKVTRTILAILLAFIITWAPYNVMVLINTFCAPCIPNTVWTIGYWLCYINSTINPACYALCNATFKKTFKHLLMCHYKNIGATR
Briefly: biochemical. More on the design: species or system male Sprague-Dawley rats. The conditions noted are these: whole heart homogenate; 0.3 nanomolar 3H-NMS; 30 C; 45 minutes; pH 7.4; read-out: Receptor Binding Tests IC50, Heart.

Assay [2] concerns the target muscarinic receptors (submandibular gland) (Rattus norvegicus, UniProt P08483). Briefly: biochemical. More on the design: species or system male Sprague-Dawley rats. The conditions noted are these: submandibular gland homogenate; 0.3 nanomolar 3H-NMS; 30 C; 45 minutes; pH 7.4; read-out: Receptor Binding Tests IC50, Submandibular gland. Here is the method:
(§1) A. Studies of binding to muscarinic receptors:
(§2) In vitro measurement of the IC50 value
(§3) The organs were donated by male Sprague-Dawley rats weighing 180-220 g. After the heart and submandibular gland and cerebral cortex had been removed, all other steps were carried out in ice cold Hepes HCl buffer (pH 7.4; 100 millimolar NaCl, 10 millimolar MgClz). The whole heart was cut up with scissors. All the organs were then homogenised in a Potter apparatus.
(§4) For the binding test the homogenised organs were diluted as follows:
Submandibular gland 1:400
(§5) The homogenised organs were incubated at a certain concentration of the radioligand and at a series of concentrations of the non-radioactive test substances in an Eppendorf centrifuge tube at 30 C. Incubation lasted 45 minutes. The radioligand used was 0.3 nanomolar 3H-N-methylscopolamine (^3 H-NMS). Incubation was ended by the addition of ice cold buffer followed by vacuum filtration. The filters were rinsed with cold buffer and their radioactivity was determined. It represents the sum of specific and non-specific binding of ^3 H-NMS. The proportion of non-specific binding was defined as the radioactivity which was bound in the presence of 1 micromolar quinuclidinylbenzylate. Each measurement was taken four times. The IC50 values of the non-labelled test substances were determined graphically. They represent that concentration of test substance at which the specific binding of 3H-NMS to the muscarinic receptors in the various organs was inhibited by 50%.

A further assay concerns the target T2, M2 (Rattus norvegicus, UniProt P10980).
T2 construct: The bradycardia caused by vagus stimulation; from tissue; host or cells: heart of the living rat (male THOM rats, in vivo)
T2 sequence (P10980 1-466): T1 sequence (P10980 1-466)
The experiment in a line: M1/M2 selectivity in the rat: inhibition of vagal bradycardia (M2). The class given is in vivo, male THOM rats. The conditions noted are these: iv, 5 min. An excerpt: (§6) B. Investigation of functional selectivity of the antimuscarinic effect
(§7) Substances with antimuscarinic properties inhibit the effects of agonists supplied exogenically or of acetylcholine, which is released from cholinergic nerve endings. The following is a description of some methods that are suitable for the detection of cardioselective antimuscarinic agents.
(§8) The objective of the methods was to confirm the selectivity of the antimuscarinic effect. Those substances which had been selected on the basis of "in vitro" tests were tested for their
(§9) 1. M1 /M2 selectivity in the rat,
(§10) 3. Inhibition of the acetylcholine effect on the bladder, bronchi and heart rate in the guinea pig. 1. M1 /M2 SELECTIVITY IN THE RAT
The method used was described by Hammer and Giachetti (Life Sciences 31, 2991-2998 (1982)). 5 minutes after the intravenous injection of increasing doses of the substance, either the right vagus was electrically stimulated (frequency: 25 Hz; pulse width: 2ms; duration of stimulus: 30s; voltage: supramaximal) or 0.3 mg/kg of McN-A-343 were intravenously injected into male THOM rats. The bradycardia caused by vagus stimulation and the rise in blood pressure caused by McN-A-343 were determined. The dosage of the substances which reduced either the vagal bradycardia (M2) or the rise in blood pressure (M1) by 50% was determined graphically. For the results see Table II.

The target in the next assay is T3, M1 (Rattus norvegicus, UniProt P08482).
T3 construct: from tissue; host or cells: living rat (male THOM rats, in vivo); sympathetic ganglia by own knowledge
T3 sequence (P08482 1-460): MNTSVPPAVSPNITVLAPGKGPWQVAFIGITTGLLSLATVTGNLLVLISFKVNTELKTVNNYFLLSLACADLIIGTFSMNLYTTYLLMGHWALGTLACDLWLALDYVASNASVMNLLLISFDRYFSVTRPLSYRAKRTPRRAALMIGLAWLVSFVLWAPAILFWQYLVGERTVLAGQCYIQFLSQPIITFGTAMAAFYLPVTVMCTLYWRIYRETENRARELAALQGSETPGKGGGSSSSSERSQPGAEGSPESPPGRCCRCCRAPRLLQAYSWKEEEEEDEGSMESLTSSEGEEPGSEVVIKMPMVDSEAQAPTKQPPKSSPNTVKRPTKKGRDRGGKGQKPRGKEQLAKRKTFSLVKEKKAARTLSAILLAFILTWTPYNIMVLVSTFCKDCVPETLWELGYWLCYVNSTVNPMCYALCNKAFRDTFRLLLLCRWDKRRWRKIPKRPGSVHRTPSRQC
The experiment in a line: M1/M2 selectivity in the rat: inhibition of McN-A-343-induced rise in blood pressure (M1). The class given is in vivo, male THOM rats. The conditions noted are these: iv, 5 min.
Excerpt: as §6, §7, §8, §9, §10
The dosage of the substances which reduced either the vagal bradycardia (M2) or the rise in blood pressure (M1) by 50% was determined graphically. For the results see Table II.

The next assay deals with secretion of saliva. Briefly: Salivation-inhibiting effect in the rat (pilocarpine-induced saliva secretion). The format is in vivo, male THOM rats. The conditions noted are these: iv; urethane-anaesthetised rat; i.v.; pilocarpine 2 mg/kg s.c.; read-out: -log ED50, Salivation (converted). As for the experimental part: as §8
2. Salivation-inhibiting effect on the rat and
2. SALIVATION-INHIBITING EFFECT IN THE RAT
The secretion of saliva was initiated by subcutaneous administration of 2 mg/kg of pilocarpine. The saliva was absorbed with blotting paper and the surface area covered was measured every 5 minutes by planimetry. The dosage of the substance which reduced the volume of saliva by 50% was determined graphically. For the results see Table II.

Assay [3] relates to acetylcholine activity on heart rate. The experiment in a line: Inhibition of the effect of acetylcholine on heart rate in guinea pigs. The format is in vivo, guinea pig. The conditions noted are these: Cavia porcellus, 5 min. Here is the method:
(§11) The objective of the methods was to confirm the selectivity of the antimuscarinic effect. Those substances which had been selected on the basis of "in vitro" tests were tested for their 3. […] M1 /M2 SELECTIVITY IN THE RAT 3. INHIBITION OF THE EFFECT OF ACETYLCHOLINE ON THE BLADDER, BRONCHI AND HEART RATE IN GUINEA PIGS 5 minutes after the administration of the test substance, 10 microgram/kg of acetylcholine were simultaneously injected intravenously and intra-arterially into anaesthetised guinea pigs. The heart rate was recorded directly by extracorporeal derivation of the ECG, the expiration resistance according to Konzett-Ro ler and contraction of the exposed bladder. In order to determine the inhibition of the acetylcholine activity on the organs under investigation, dosage/activity curves were recorded and from them -log ED50 values were determined.

Assay [4] deals with acetylcholine activity on the bronchi. Briefly: Inhibition of the effect of acetylcholine on the bronchi in guinea pigs. The class given is in vivo. The conditions noted are these: Cavia porcellus, 5 min; anaesthetised guinea pig; 5 minutes after test substance; 10 microgram/kg acetylcholine; expiration resistance; read-out: -log ED50, Bronchi (converted). Here is the method:
as §11

Assay [5] deals with acetylcholine activity on the bladder. Briefly: Inhibition of the effect of acetylcholine on the bladder in guinea pigs. The format is in vivo, guinea pig. The conditions noted are these: Cavia porcellus, 5 min. Here is the method:
as §11

Assay [6] deals with muscarinic receptors (cerebral cortex). The experiment in a line: Muscarinic receptor binding, cerebral cortex (displacement of 3H-N-methylscopolamine). More on the design: species or system male Sprague-Dawley rats. The conditions noted are these: cerebral cortex homogenate; 0.3 nanomolar 3H-NMS; 30 C; 45 minutes; pH 7.4; read-out: Receptor Binding Tests IC50, Cortex. As for the experimental part:
as §1, §2, §3, §4
as §5, with “They represent that concentration of test substance at which the specific binding of 3H-NMS to the muscarinic receptors in the various organs was inhibited by 50%.” left out
Background: In a radioligand displacement assay an active substance lowers the binding of a labelled ligand.

Where [7] appears, read: i.v., 5 minutes after injection, vagus stimulation 25 Hz, read-out: -log ED50, Heart (vagal bradycardia, M2) (converted).
Setting [8] is: i.v., 5 minutes after injection, 0.3 mg/kg McN-A-343 i.v., read-out: -log ED50, Blood pressure (McN-A-343 pressor response, M1) (converted).
Setting [9] is: anaesthetised guinea pig, 5 minutes after test substance, 10 microgram/kg acetylcholine, read-out: -log ED50, Heart (converted).
The mark [10] stands for this setting: anaesthetised guinea pig, 5 minutes after test substance, 10 microgram/kg acetylcholine, contraction of exposed bladder, read-out: -log ED50, Bladder (converted).

Counter-ions that a name gives are not always drawn. Like-named read-outs stand apart in the source and are kept apart here.

As usually defined, the IC50 is the concentration that gives 50% inhibition. As usually defined, the ED50 is the midpoint of the dose-response relation.

muscarinic receptors (submandibular gland), sequence (P08483 whole entry): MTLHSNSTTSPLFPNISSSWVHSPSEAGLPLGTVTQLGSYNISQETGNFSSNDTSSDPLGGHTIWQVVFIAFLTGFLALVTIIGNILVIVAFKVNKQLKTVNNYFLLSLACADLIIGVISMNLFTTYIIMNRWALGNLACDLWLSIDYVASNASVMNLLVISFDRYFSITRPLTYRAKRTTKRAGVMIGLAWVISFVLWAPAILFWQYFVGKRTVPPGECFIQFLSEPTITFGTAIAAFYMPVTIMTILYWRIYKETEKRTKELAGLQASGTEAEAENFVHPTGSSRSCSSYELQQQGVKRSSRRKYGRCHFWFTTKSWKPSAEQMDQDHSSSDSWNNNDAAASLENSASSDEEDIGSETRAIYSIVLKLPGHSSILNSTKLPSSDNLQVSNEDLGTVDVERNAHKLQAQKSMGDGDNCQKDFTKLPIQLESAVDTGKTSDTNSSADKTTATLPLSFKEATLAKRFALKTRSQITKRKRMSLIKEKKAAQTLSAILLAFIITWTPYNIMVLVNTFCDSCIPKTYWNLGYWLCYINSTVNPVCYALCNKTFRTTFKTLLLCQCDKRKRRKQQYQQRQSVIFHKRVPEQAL

Take `CN(CCC1CCCN1C)CC(=O)N1c2ccccc2C(=O)Nc2cccnc21` (stereo not drawn) [Substance A, hydrochloride]: the values for the IC50 in assay [1] and in [2] were 9 nM and 80 nM, respectively. For the same compound, the ED50 on M2 (setting [7]) was 0.0123 µmol/kg; at M1 (setting [8]) it was 0.0871 µmol/kg; in the assay with secretion of saliva, 0.158 µmol/kg; in assay [3] (setting [9]), 0.02 µmol/kg; in assay [4], 0.0251 µmol/kg; in assay [5] (setting [10]) it was 0.141 µmol/kg.
For `CCN(CCC1CCCN1C)CC(=O)N1c2cc(Cl)ccc2C(=O)Nc2cccnc21` (stereo not drawn) [Substance B, 9-chloro-5,11-dihydro-11[[[2-(1-methyl-2-pyrrolidinyl)ethyl]ethylamino]acetyl]-6H-pyrido-[2,3-b][1,4]benzodiazepin-6-one], the figures for the concentration for half-maximal inhibition (IC50) in [6], in assay [1] and in assay [2] were 70 nM, 10 nM and 100 nM, respectively. Moreover, the figures for the ED50 in [3] (setting [9]), in assay [4] and in [5] (setting [10]) were 0.1 µmol/kg, 0.191 µmol/kg and 0.832 µmol/kg, respectively.
Take `CN(CCC1CCCN1C)CC(=O)N1c2ccccc2NC(=O)c2ccccc21` (stereo not drawn) [Substance C, 5,10-dihydro-5-[[[2-(1-methyl-2-pyrrolidinyl)-ethyl]methylamino]acetyl]-11H-dibenzo[b,e][1,4]-diazepin-11-one hydrochloride]: the IC50 in assay [6] is 8 nM; in assay [1], 3 nM; in assay [2], 20 nM. Also, the figures for the ED50 in assay [3] (setting [9]), in assay [4] and in [5] (setting [10]) were 0.0288 µmol/kg, 0.0295 µmol/kg and 0.234 µmol/kg, respectively.
For `CCN(CC)CC1CCCCN1CC(=O)N1c2ccccc2C(=O)Nc2cccnc21` (stereo not drawn) [Substance D, 11-[[2-[(diethylamino)methyl]-1-piperidinyl]acetyl]-5,11-dihydro-6H-pyrido[2,3-b][1,4]benzodiazepin-6-one], the median effective dose (ED50) on M2 (setting [7]) is 0.38 µmol/kg; at M1 (setting [8]), 2.34 µmol/kg; in the assay with secretion of saliva, 10 µmol/kg.
`CN1C2CCC1CC(OC(=O)C(CO)c1ccccc1)C2` (stereo not drawn) [Substance F, atropine, reference compound]: the ED50 on M2 (read-out: -log ED50, Heart (vagal bradycardia, M2)) is 0.0115 µmol/kg; on M1 (read-out: -log ED50, Blood pressure (McN-A-343 pressor response, M1)), 0.0457 µmol/kg; in [3] (read-out: -log ED50, Heart), 0.02 µmol/kg; in [5] (read-out: -log ED50, Bladder), 0.0933 µmol/kg.
